Data published in ChEMBL document CHEMBL3872214, “Synthesis and evaluation of in vivo antioxidant, in vitro antibacterial, MRSA and antifungal activity of novel substituted isatin N-(2,3,4,6-tetra-O-acetyl-β-d-glucopyranosyl)thiosemicarbazones” (Eur J Med Chem, 2016).
Converted amounts (≈) assume the structure as drawn. Blank lines part the entries; values can stand above or below the compound they belong to.

Experiments:
Assay type in all cases: functional
Candida albicans = assay: Antifungal activity against Candida albicans ATCC 7754 after 72 hrs by agar dilution method; conditions: ATCC 7754, 72 h
[1] = Antifungal activity against Saccharomyces cerevisiae SH20 after 72 hrs by agar dilution method
Aspergillus niger = assay: Antifungal activity against Aspergillus niger 439 after 72 hrs by agar dilution method; conditions: Aspergillus niger, 439, 72 h
[2] = Antifungal activity against Fusarium oxysporum M42 after 72 hrs by agar dilution method
Bacillus subtilis = assay: Antibacterial activity against Bacillus subtilis ATCC 11774 after 18 to 20 hrs by two-fold microbroth dilution method
Staphylococcus aureus [3] = assay: Antibacterial activity against methicillin-resistant Staphylococcus aureus 198-2 after 18 to 20 hrs by two-fold microbroth dilution method
Rattus norvegicus [4] = assay: (§1) Antioxidant activity in CCL4-intoxicated Wistar albino rat assessed as liver cytosolic superoxide dismutase activity per mg protein at 100 mg/kg, ip administered for 7 consecutive days after DL-alpha-tocopherol acetate treatment followed by CCL4 dosing measured after 24 hrs by xanthine based assay (reference value: 5.27 +/- 0.22 U)
Klebsiella pneumoniae = assay: Antibacterial activity against Klebsiella pneumoniae ATCC 4352 after 18 to 20 hrs by two-fold microbroth dilution method
Rattus norvegicus [5] = assay: as §1, with “catalase” for “superoxide dismutase”, “H2O2” for “xanthine”, “220.15” for “5.27”, “11.43” for “0.22”
[6] = tested on: Staphylococcus epidermidis; assay: Antibacterial activity against Staphylococcus epidermidis ATCC 12228 after 18 to 20 hrs by two-fold microbroth dilution method
Staphylococcus aureus [7] = assay: Antibacterial activity against methicillin-resistant Staphylococcus aureus 198-3 after 18 to 20 hrs by two-fold microbroth dilution method
Klebsiella aerogenes = assay: Antibacterial activity against Enterobacter aerogenes ATCC 13048 after 18 to 20 hrs by two-fold microbroth dilution method
Escherichia coli = assay: Antibacterial activity against Escherichia coli ATCC 25922 after 18 to 20 hrs by two-fold microbroth dilution method
Staphylococcus aureus [8] = assay: Antibacterial activity against methicillin-resistant Staphylococcus aureus 198-1 after 18 to 20 hrs by two-fold microbroth dilution method
Rattus norvegicus [9] = assay: as §1, with “glutathione peroxidase” for “superoxide dismutase”, “H2O2” for “xanthine”, “spectrophotometric analysis” for “assay”, “0.28” for “5.27”, “0.01” for “0.22”
Pseudomonas aeruginosa = assay: Antibacterial activity against Pseudomonas aeruginosa […] after 18 to 20 hrs by two-fold microbroth dilution method
Staphylococcus aureus [10] = assay: Antibacterial activity against Staphylococcus aureus ATCC 11632 after 18 to 20 hrs by two-fold microbroth dilution method

- MIC (Candida albicans): 3.12 µM (≈ 1.3 µg/mL)
- MIC [1]: 3.12 µM (≈ 1.3 µg/mL)
- MIC (Aspergillus niger): 1.56 µM (≈ 0.649 µg/mL)
- MIC [2]: 3.12 µM (≈ 1.3 µg/mL)
SMILES: Clc1ccc(COC(Cn2ccnc2)c2ccc(Cl)cc2Cl)c(Cl)c1 (stereo not given) [MICONAZOLE]

SMILES: C=CCN1C(=O)/C(=N/NC(=S)N[C@@H]2O[C@H](COC(C)=O)[C@@H](OC(C)=O)[C@H](OC(C)=O)[C@H]2OC(C)=O)c2ccccc21
- MIC (Bacillus subtilis): 200 µM (≈ 118 µg/mL)
- MIC (Staphylococcus aureus [3]): 200 µM (≈ 118 µg/mL)
- Activity (Rattus norvegicus [4]): 9.91 U
- MIC (Candida albicans): 100 µM (≈ 59.1 µg/mL)
- MIC (Klebsiella pneumoniae): 100 µM (≈ 59.1 µg/mL)
- Activity (Rattus norvegicus [5]): 357.47 U
- MIC [1]: 100 µM (≈ 59.1 µg/mL)
- MIC [6]: 200 µM (≈ 118 µg/mL)
- MIC (Staphylococcus aureus [7]): 200 µM (≈ 118 µg/mL)
- MIC (Klebsiella aerogenes): 100 µM (≈ 59.1 µg/mL)
- MIC (Escherichia coli): 100 µM (≈ 59.1 µg/mL)
- MIC (Staphylococcus aureus [8]): 200 µM (≈ 118 µg/mL)
- MIC (Aspergillus niger): 200 µM (≈ 118 µg/mL)
- MIC [2]: 200 µM (≈ 118 µg/mL)
- Activity (Rattus norvegicus [9]): 0.27 U
- MIC (Pseudomonas aeruginosa): 100 µM (≈ 59.1 µg/mL)
- MIC (Staphylococcus aureus [10]): 200 µM (≈ 118 µg/mL)

SMILES: CCN1C(=O)/C(=N/NC(=S)N[C@@H]2O[C@H](COC(C)=O)[C@@H](OC(C)=O)[C@H](OC(C)=O)[C@H]2OC(C)=O)c2ccccc21
- MIC (Bacillus subtilis): 100 µM (≈ 57.9 µg/mL)
- MIC (Staphylococcus aureus [3]): 100 µM (≈ 57.9 µg/mL)
- Activity (Rattus norvegicus [4]): 9.68 U
- MIC (Candida albicans): 400 µM (≈ 231 µg/mL)
- MIC (Klebsiella pneumoniae): 12.5 µM (≈ 7.23 µg/mL)
- Activity (Rattus norvegicus [5]): 358.47 U
- MIC [1]: 400 µM (≈ 231 µg/mL)
- MIC [6]: 100 µM (≈ 57.9 µg/mL)
- MIC (Staphylococcus aureus [7]): 100 µM (≈ 57.9 µg/mL)
- MIC (Klebsiella aerogenes): 12.5 µM (≈ 7.23 µg/mL)
- MIC (Escherichia coli): 12.5 µM (≈ 7.23 µg/mL)
- MIC (Staphylococcus aureus [8]): 100 µM (≈ 57.9 µg/mL)
- MIC (Aspergillus niger): 25 µM (≈ 14.5 µg/mL)
- MIC [2]: 200 µM (≈ 116 µg/mL)
- Activity (Rattus norvegicus [9]): 0.75 U
- MIC (Pseudomonas aeruginosa): 12.5 µM (≈ 7.23 µg/mL)
- MIC (Staphylococcus aureus [10]): 100 µM (≈ 57.9 µg/mL)

SMILES: CC(=O)OC[C@H]1O[C@@H](NC(=S)N/N=C2/C(=O)N(CCc3ccccc3)c3ccccc32)[C@H](OC(C)=O)[C@@H](OC(C)=O)[C@@H]1OC(C)=O
- MIC (Bacillus subtilis): 200 µM (≈ 131 µg/mL)
- MIC (Staphylococcus aureus [3]): 200 µM (≈ 131 µg/mL)
- Activity (Rattus norvegicus [4]): 8.45 U
- MIC (Candida albicans): 400 µM (≈ 262 µg/mL)
- MIC (Klebsiella pneumoniae): 100 µM (≈ 65.5 µg/mL)
- Activity (Rattus norvegicus [5]): 260.61 U
- MIC [1]: 400 µM (≈ 262 µg/mL)
- MIC [6]: 200 µM (≈ 131 µg/mL)
- MIC (Staphylococcus aureus [7]): 200 µM (≈ 131 µg/mL)
- MIC (Klebsiella aerogenes): 100 µM (≈ 65.5 µg/mL)
- MIC (Escherichia coli): 100 µM (≈ 65.5 µg/mL)
- MIC (Staphylococcus aureus [8]): 200 µM (≈ 131 µg/mL)
- MIC (Aspergillus niger): 200 µM (≈ 131 µg/mL)
- MIC [2]: 200 µM (≈ 131 µg/mL)
- Activity (Rattus norvegicus [9]): 1.73 U
- MIC (Pseudomonas aeruginosa): 100 µM (≈ 65.5 µg/mL)
- MIC (Staphylococcus aureus [10]): 200 µM (≈ 131 µg/mL)

SMILES: CC(=O)OC[C@H]1O[C@@H](NC(=S)N/N=C2/C(=O)Nc3ccc(Br)cc32)[C@H](OC(C)=O)[C@@H](OC(C)=O)[C@@H]1OC(C)=O
- MIC (Bacillus subtilis): 6.25 µM (≈ 3.93 µg/mL)
- MIC (Staphylococcus aureus [3]): 1.56 µM (≈ 0.982 µg/mL)
- Activity (Rattus norvegicus [4]): 10.47 U
- MIC (Candida albicans): 12.5 µM (≈ 7.87 µg/mL)
- MIC (Klebsiella pneumoniae): 50 µM (≈ 31.5 µg/mL)
- Activity (Rattus norvegicus [5]): 394.43 U
- MIC [1]: 12.5 µM (≈ 7.87 µg/mL)
- MIC [6]: 6.25 µM (≈ 3.93 µg/mL)
- MIC (Staphylococcus aureus [7]): 3.12 µM (≈ 1.96 µg/mL)
- MIC (Klebsiella aerogenes): 50 µM (≈ 31.5 µg/mL)
- MIC (Escherichia coli): 50 µM (≈ 31.5 µg/mL)
- MIC (Staphylococcus aureus [8]): 1.56 µM (≈ 0.982 µg/mL)
- MIC (Aspergillus niger): 6.25 µM (≈ 3.93 µg/mL)
- MIC [2]: 12.5 µM (≈ 7.87 µg/mL)
- Activity (Rattus norvegicus [9]): 0.32 U
- MIC (Pseudomonas aeruginosa): 50 µM (≈ 31.5 µg/mL)
- MIC (Staphylococcus aureus [10]): 6.25 µM (≈ 3.93 µg/mL)

SMILES: CCCCN1C(=O)/C(=N/NC(=S)N[C@@H]2O[C@H](COC(C)=O)[C@@H](OC(C)=O)[C@H](OC(C)=O)[C@H]2OC(C)=O)c2ccccc21
- MIC (Bacillus subtilis): 100 µM (≈ 60.7 µg/mL)
- MIC (Staphylococcus aureus [3]): 100 µM (≈ 60.7 µg/mL)
- Activity (Rattus norvegicus [4]): 9.89 U
- MIC (Candida albicans): 100 µM (≈ 60.7 µg/mL)
- MIC (Klebsiella pneumoniae): 12.5 µM (≈ 7.58 µg/mL)
- Activity (Rattus norvegicus [5]): 377.61 U
- MIC [1]: 100 µM (≈ 60.7 µg/mL)
- MIC [6]: 100 µM (≈ 60.7 µg/mL)
- MIC (Staphylococcus aureus [7]): 100 µM (≈ 60.7 µg/mL)
- MIC (Klebsiella aerogenes): 12.5 µM (≈ 7.58 µg/mL)
- MIC (Escherichia coli): 12.5 µM (≈ 7.58 µg/mL)
- MIC (Staphylococcus aureus [8]): 100 µM (≈ 60.7 µg/mL)
- MIC (Aspergillus niger): 100 µM (≈ 60.7 µg/mL)
- MIC [2]: 100 µM (≈ 60.7 µg/mL)
- Activity (Rattus norvegicus [9]): 0.93 U
- MIC (Pseudomonas aeruginosa): 12.5 µM (≈ 7.58 µg/mL)
- MIC (Staphylococcus aureus [10]): 100 µM (≈ 60.7 µg/mL)

- MIC (Bacillus subtilis): 3.12 µM (≈ 1.03 µg/mL)
- MIC (Klebsiella pneumoniae): 1.56 µM (≈ 0.517 µg/mL)
- MIC [6]: 3.12 µM (≈ 1.03 µg/mL)
- MIC (Klebsiella aerogenes): 1.56 µM (≈ 0.517 µg/mL)
- MIC (Escherichia coli): 1.56 µM (≈ 0.517 µg/mL)
- MIC (Pseudomonas aeruginosa): 1.56 µM (≈ 0.517 µg/mL)
- MIC (Staphylococcus aureus [10]): 3.12 µM (≈ 1.03 µg/mL)
SMILES: O=C(O)c1cn(C2CC2)c2cc(N3CCNCC3)c(F)cc2c1=O [CIPROFLOXACIN]

SMILES: COc1cccc(OC)c1C(=O)N[C@@H]1C(=O)N2[C@@H]1SC(C)(C)[C@@H]2C(=O)O [METHICILLIN]
- MIC (Staphylococcus aureus [3]): > 200 µM
- MIC (Staphylococcus aureus [7]): > 200 µM
- MIC (Staphylococcus aureus [8]): > 200 µM

SMILES: CN[C@H](CC(C)C)C(=O)N[C@H]1C(=O)N[C@@H](CC(N)=O)C(=O)N[C@H]2C(=O)N[C@H]3C(=O)N[C@H](C(=O)N[C@H](C(=O)O)c4cc(O)cc(O)c4-c4cc3ccc4O)[C@H](O)c3ccc(c(Cl)c3)Oc3cc2cc(c3O[C@@H]2O[C@H](CO)[C@@H](O)[C@H](O)[C@H]2O[C@H]2C[C@](C)(N)[C@H](O)[C@H](C)O2)Oc2ccc(cc2Cl)[C@H]1O [VANCOMYCIN]
- MIC (Bacillus subtilis): 0.83 µM (≈ 1.2 µg/mL)
- MIC (Staphylococcus aureus [3]): 1.65 µM (≈ 2.39 µg/mL)
- MIC [6]: 2.1 µM (≈ 3.04 µg/mL)
- MIC (Staphylococcus aureus [7]): 1.65 µM (≈ 2.39 µg/mL)
- MIC (Staphylococcus aureus [8]): 1.65 µM (≈ 2.39 µg/mL)
- MIC (Staphylococcus aureus [10]): 1.21 µM (≈ 1.75 µg/mL)
